The assay deals with T1, endothelial lipase (EL) (Homo sapiens, UniProt Q9Y5X9).
T1 construct: made in house; host or cells: recombinant CHO or HEK293 cell lines; concentrated conditioned medium used as enzyme solution
T1 sequence (Q9Y5X9 21-500): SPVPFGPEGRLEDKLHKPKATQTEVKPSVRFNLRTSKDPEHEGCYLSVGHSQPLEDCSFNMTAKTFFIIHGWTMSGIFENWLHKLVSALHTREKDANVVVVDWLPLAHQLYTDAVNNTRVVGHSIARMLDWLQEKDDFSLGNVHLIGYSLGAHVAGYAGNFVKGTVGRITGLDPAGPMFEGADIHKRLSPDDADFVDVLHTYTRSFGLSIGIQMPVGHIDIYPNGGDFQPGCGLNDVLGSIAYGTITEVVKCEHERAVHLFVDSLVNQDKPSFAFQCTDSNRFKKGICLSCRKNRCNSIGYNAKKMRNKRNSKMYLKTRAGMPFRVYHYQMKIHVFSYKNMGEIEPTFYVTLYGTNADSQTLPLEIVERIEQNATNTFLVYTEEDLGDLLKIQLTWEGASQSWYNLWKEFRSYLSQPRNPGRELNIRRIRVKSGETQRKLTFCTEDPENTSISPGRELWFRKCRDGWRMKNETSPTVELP
Put plainly: EL inhibition assay (EL activity assay with fluorescent Bodipy phospholipid substrate). Conditions: EL from conditioned medium of recombinant cell lines (CHO, HEK293); 37° C., 90 minutes; Bodipy-labeled phosphocholine substrate. In kind it is biochemical. The protocol: The activity of the compounds of the invention of the formula I was tested in the following enzyme assay system: […]
EL is released as secretory protein in high concentration into cell culture medium (conditioned medium) by recombinant cell lines (CHO, HEK293). This is employed as an enzyme solution after concentration.
The phospholipase-specific substrate 1,2-bis(4,4-difluoro-5,7-dimethyl-4-bora-3a,4a-diaza-s-indacene-3-undecanoyl)-sn-glycero-3-phosphocholine (manufacturer Molecular Probes) is used to characterize the enzymatic activity of endothelial lipase and the effect of inhibitors. Hydrolysis of the A1 ester linkage of this phospholipid by the enzyme liberates a fatty acid labeled with the fluorescent dye Bodipy which can be detected after separation by thin-layer chromatography on an HPTLC plate (silica gel 60, Merck) or directly in the reaction vessel by measuring the fluorescence. The substrate solution is prepared by dissolving 100 μg of 1,2-bis(4,4-difluoro-5,7-dimethyl-4-bora-3a,4a-diaza-s-indacene-3-undecanoyl)-sn-glycero-3-phospho-choline (manufacturer Molecular Probes) in 100 μl of DMSO and taking up in 2.4 mg of tripalmitin (Sigma) in 393 μl of chloroform which comprises 20 mg/ml of DOP-choline (1,2-dioleoyl-sn-glycero-3-phosphocholine). 39.3 μl of this lipid mixture are transferred into a fresh reaction vessel, and the solvent is evaporated off. The lipid mixture is dissolved in 4 ml of 200 mM TRIS-HCl, 150 mM sodium chloride, pH=7.4, by sonicating twice. The subsequent enzymic reaction takes place at 37° C. for 90 minutes. For this purpose, 20 μl of the substrate solution are incubated with 2 μl of inhibitor of appropriate concentration (dissolved in 10% DMSO, using 10% strength DMSO solution for control) and 2 μl of enzyme solution (conditioned medium). Subsequently, 4 μl of the assay mixture are loaded onto an HPTLC plate (silica gel 60, Merck), and the liberated fluorescent dye is separated for detection with a mobile phase (diethyl ether:petroleum spirit:acetic acid [78:22:1]). After evaporation of the mobile phase, the plate is read in a fluorescence scanner. An increased liberation of the fluorescent dye in the uninhibited reaction is observed as a measure of the enzyme activity.
The enzymatic activity is reduced as a function of the inhibitor concentration used, and the inhibitor concentration at which a half-maximum enzymatic activity is observed is called IC50.
In the case of `CCCCCCNC(=O)n1c(=O)n(C)c2cccnc21` [Example 1, N-Hexyl-1-methyl-2-oxo-1,2-dihydroimidazo[4,5-b]pyridine-3-carboxamide], the IC50 (commonly the concentration needed to halve the response being measured) amounted to 0.06 µM. As to `Cc1ccccc1CNC(=O)n1c(=O)n(C)c2cccnc21` [Example 2, N-(2-Methylbenzyl)-1-methyl-2-oxo-1,2-dihydroimidazo[4,5-b]pyridine-3-carboxamide], the IC50 amounted to 0.24 µM. The figure for `CCCCCCNC(=O)n1c(=O)n(C(=O)OC(C)(C)C)c2c(C)ccnc21` [Example 7, tert-Butyl 3-hexylcarbamoyl-7-methyl-2-oxo-2,3-dihydroimidazo[4,5-b]pyridine-1-carboxylate] is 0.146 µM; for `CCCCCCNC(=O)n1c(=O)n(C(=O)NCCCCCC)c2cnccc21` [Example 8, N,N′-Bishexyl-2-oxoimidazo[4,5-c]pyridine-1,3-dicarboxamide] it is 0.226 µM.

On to `Cn1c(=O)n(C(=O)N[C@@H]2CCc3ccccc32)c2ncccc21` [Example 9, 1-Methyl-2-oxo-1,2-dihydro-imidazo[4,5-b]pyridine-3-carboxylic acid-(R)-indan-1-ylamide], for which the IC50 was 0.232 µM.
